Measurements taken from patent US11957759B1, “Rapidly accelerated fibrosarcoma (RAF) degrading compounds and associated methods of use” (Arvinas Operations, Inc., priority 2022, dated 2024).

Key:
B-RAF V600E = biological target: T1, B-RAF V600E (Homo sapiens, UniProt P15056, V600E); experiment: Target protein degradation, assay C: T-Rex 293 cells, HA-BRAF_V600E, 384 well format; type: cell-based; settings: T-Rex 293 HA-BRAF_V600E cells, 24 hours, Examples 83-269; for Dmax: T-REx-293, Assay C
T1 construct: expressed in transfected cells; host or cells: T-Rex 293 cells (Invitrogen #R71007)
T1 sequence (P15056 whole entry V600E): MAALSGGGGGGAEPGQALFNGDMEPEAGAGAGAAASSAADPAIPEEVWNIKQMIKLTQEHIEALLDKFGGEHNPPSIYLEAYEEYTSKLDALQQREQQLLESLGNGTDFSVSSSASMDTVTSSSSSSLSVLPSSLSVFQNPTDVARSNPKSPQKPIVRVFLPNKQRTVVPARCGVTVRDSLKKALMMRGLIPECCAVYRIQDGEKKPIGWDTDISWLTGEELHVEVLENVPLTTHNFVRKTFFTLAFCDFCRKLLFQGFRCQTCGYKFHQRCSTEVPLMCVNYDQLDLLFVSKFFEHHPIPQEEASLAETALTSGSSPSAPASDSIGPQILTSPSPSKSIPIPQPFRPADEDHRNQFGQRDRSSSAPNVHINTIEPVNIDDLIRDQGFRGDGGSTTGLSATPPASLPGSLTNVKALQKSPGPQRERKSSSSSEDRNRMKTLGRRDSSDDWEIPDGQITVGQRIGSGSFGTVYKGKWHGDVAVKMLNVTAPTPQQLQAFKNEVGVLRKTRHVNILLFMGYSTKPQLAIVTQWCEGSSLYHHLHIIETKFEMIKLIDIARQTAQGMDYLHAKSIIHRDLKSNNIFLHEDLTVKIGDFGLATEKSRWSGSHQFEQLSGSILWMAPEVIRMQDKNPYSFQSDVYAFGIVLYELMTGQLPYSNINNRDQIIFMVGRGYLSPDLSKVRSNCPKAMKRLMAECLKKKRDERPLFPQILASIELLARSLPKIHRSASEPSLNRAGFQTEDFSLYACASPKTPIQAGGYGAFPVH
Method: C. T-Rex 293 Cells (384 Well Format)
(§1) T-Rex 293 cells were purchased from Invitrogen (#R71007), and stably transfected with a pcDNA4/TO_HA-BRAF_V600E construct, using 400 ug Zeocin for selection. V600E cells are plated in DMEM media (Gibco #11965118) containing 10% FBS (Gibco #16000044), 1% penicillin-streptomycin (ThermoFisher #15140122), 1:250 zeocin (Invitrogen #R-25005), and 1 ng/mL doxycycline (Selleckchem #4163) at a density of 7,500 cells/well in 45 μl on PDL coated, black clear bottom 384 well plates (Corning #354663) and incubated at 37° C.+5% CO2 for 24 hours. The following day, PROTAC compounds in a 1:3 11 point dilution are diluted into DMEM media using an Agilent Bravo. 5 ul of PROTACs suspended in DMEM media are added to the cells, with a final assay concentration ranging from 300 nM to 5 pM in 0.5% DMSO. Plates are incubated at 37° C.+5% CO2 for 24 hours. At the end of treatment, media is aspirated, and cells are fixed in 50 uL 4% PFA (EMS #15710) in PBS++(PBS, 1 mM CaCl, 1 mM MgCl) at RT for 15 minutes. Cells are washed 2× with 60 uL PBS++ and permeabilized in 50 uL 1% Triton X-100 (Sigma #93443) in PBS++ for 5 minutes at RT. Cells are washed in PBS++ prior to blocking with 50 uL Licor blocking buffer (Licor #927-60001) for 1 hour at RT. HA-tagged BRAF was stained using 50 uL HA antibody (CST #3724) at 1:1000 in Licor blocking buffer for two hours at RT. Primary is aspirated before adding 50 ul of secondary antibody solution containing 1:1000 Hoechst (ThermoFisher #62249), 1:1000 HCS CellMask Deep Red Stain (ThermoFisher #H32721), and 1:5000 goat anti-rabbit IgG Alexa-Fluor 488 (ThermoFisher #A32731) in PBS++ for 1 hr at RT. Plates are washed 4× with 60 uL PBS++, then sealed with Adhesive Black Light Absorbing Film (VWR #89087-692) and imaged on the ThermoFisher CX7 PRO high content instrument. BRAF intensity is quantified in HCS Studio software (ThermoFisher), using a custom script, exported, analyzed using KNIME, and curve curation is performed in an ELN (Scilligence). Cell toxicity is measured via comparing number of nuclei in PROTAC treated wells to DMSO controls.
(§2) The concentration of an exemplary compound that leads to half maximal degradation (DC50) as well as the maximum degradation observed (Dmax, conventionally expressed as a percentage of control) is shown below in Table 2.

B-RAF G466V = biological target: T2, B-RAF G466V (Homo sapiens, UniProt P15056, G466V); experiment: Target protein degradation, assay D: T-Rex 293 cells, HA-BRAF_G466V, 384 well format; type: cell-based; settings: T-Rex 293 HA-BRAF_G466V cells, 24 hours, Examples 83-269; for DC50: Assay D; for Dmax: T-REx-293, Assay D
T2 construct: expressed in transfected cells; host or cells: T-Rex 293 cells (Invitrogen #R71007)
T2 sequence (P15056 whole entry G466V): as the sequence (P15056 whole entry V600E) above, with G466V, E600V counted along it
Method: D. T-Rex 293 Cells (384 Well Format)
as §1, with “pcDNA4/TO_HA-BRAF_G466V” for “pcDNA4/TO_HA-BRAF_V600E”, “G466V” for “V600E”
as §2

Row | Compound | DC50 (B-RAF V600E; Assay C) | Dmax (B-RAF V600E) | DC50 (B-RAF G466V) | Dmax (B-RAF G466V) | B-RAF V600E DMax (%) (B-RAF V600E; Assay C)
1 | C[C@H]1CN(CC2CCN(c3ccc4c(c3F)CN([C@H]3CCC(=O)NC3=O)C4=O)CC2)CCN1c1ccc(-n2cnc3ccc(Oc4c(F)ccc(NS(=O)(=O)N5CC[C@@H](F)C5)c4C#N)cc3c2=O)cc1 [Example 117, (3R)-N-{2-cyano-3-[(3-(4-[(2S)-4-[(1-{2-[(3S)-2,6-dioxopiperidin-3-yl]-4-fluoro-1-oxo-2,3-dihydro-1H-isoindol-5-yl}piperidin-4-yl)methyl]-2-methylpiperazin-1-yl]phenyl}-4-oxo-3,4-dihydroquinazolin-6-yl)oxy]-4-fluorophenyl}-3-fluoropyrrolidine-1-sulfonamide] | 50 to 500 nM | 35 to 70% | – | – | –
2 | N#Cc1c(NS(=O)(=O)N2CC[C@@H](F)C2)ccc(F)c1Oc1ccc2ncn(-c3ccc(N4CCN(CC5CCN(c6ccc7c(c6)CN(C6CCC(=O)NC6=O)C7=O)CC5)CC4)s3)c(=O)c2c1 (stereo partly drawn) [Example 116, (3R)-N-{2-cyano-3-[(3-{5-[4-({1-[2-(2,6-dioxopiperidin-3-yl)-1-oxo-2,3-dihydro-1H-isoindol-5-yl]piperidin-4-yl}methyl)piperazin-1-yl]thiophen-2-yl}-4-oxo-3,4-dihydroquinazolin-6-yl)oxy]-4-fluorophenyl}-3-fluoropyrrolidine-1-sulfonamide] | 50 to 500 nM | ≤ 35% | – | – | –
3 | CCN(C)S(=O)(=O)Nc1ccc(F)c(Oc2ccc3ncn(-c4ccc(N5CCC(CN6CCC(c7ccc8c(c7)CN(C7CCC(=O)NC7=O)C8=O)CC6)CC5)cc4)c(=O)c3c2)c1C#N (centres unmarked) [Example 115, 2-[(3-{4-[4-({4-[2-(2,6-dioxopiperidin-3-yl)-1-oxo-2,3-dihydro-1H-isoindol-5-yl]piperidin-1-yl}methyl)piperidin-1-yl]phenyl}-4-oxo-3,4-dihydroquinazolin-6-yl)oxy]-6-{[ethyl(methyl)sulfamoyl]amino}-3-fluorobenzonitrile] | 50 to 500 nM | 35 to 70% | – | – | –
4 | C[C@H]1CN(CC2CCN(c3ccc4c(c3F)CN([C@@H]3CCC(=O)NC3=O)C4=O)CC2)CCN1c1ccc(-n2cnc3ccc(Oc4c(F)ccc(NS(=O)(=O)N5CC[C@@H](F)C5)c4C#N)cc3c2=O)cc1 [Example 118, (3R)-N-{2-cyano-3-[(3-(4-[(2S)-4-[(1-{2-[(3R)-2,6-dioxopiperidin-3-yl]-4-fluoro-1-oxo-2,3-dihydro-1H-isoindol-5-yl}piperidin-4-yl)methyl]-2-methylpiperazin-1-yl]phenyl}-4-oxo-3,4-dihydroquinazolin-6-yl)oxy]-4-fluorophenyl}-3-fluoropyrrolidine-1-sulfonamide] | > 500 nM | – | – | – | –

More lines, now with the values ahead:

Row | DC50 (B-RAF V600E; Assay C) | Dmax (B-RAF V600E) | DC50 (B-RAF G466V) | Dmax (B-RAF G466V) | B-RAF V600E DMax (%) (B-RAF V600E; Assay C) | Compound
5 | 50 to 500 nM | 35 to 70% | 1 to 10 nM | ≤ 35% | – | CC(C)(C1CCN(c2ncc(-n3cnc4ccc(Oc5c(F)ccc(NS(=O)(=O)N6CC[C@@H](F)C6)c5C#N)cc4c3=O)cn2)CC1)N1CCN(c2ccc3c(c2)C(=O)N(C2CCC(=O)NC2=O)C3=O)CC1 (stereo partly drawn) [Example 152, (3R)-N-{2-cyano-3-[(3-{2-[4-(2-{4-[2-(2,6-dioxopiperidin-3-yl)-1,3-dioxo-2,3-dihydro-1H-isoindol-5-yl]piperazin-1-yl}propan-2-yl)piperidin-1-yl]pyrimidin-5-yl}-4-oxo-3,4-dihydroquinazolin-6-yl)oxy]-4-fluorophenyl}-3-fluoropyrrolidine-1-sulfonamide]
6 | 5 to 50 nM | 35 to 70% | 1 to 10 nM | ≤ 35% | – | Cc1cc(N2CCC(CN3CCN(c4ccc(-n5cnc6ccc(Oc7c(F)ccc(NS(=O)(=O)N8CC[C@@H](F)C8)c7C#N)cc6c5=O)cc4)CC3)CC2)c(F)c2c1C(=O)N(C1CCC(=O)NC1=O)C2 (stereo partly drawn) [Example 94, (3R)-N-{2-cyano-3-[(3-(4-[4-({1-[2-(2,6-dioxopiperidin-3-yl)-4-fluoro-7-methyl-1-oxo-2,3-dihydro-1H-isoindol-5-yl]piperidin-4-yl}methyl)piperazin-1-yl]phenyl}-4-oxo-3,4-dihydroquinazolin-6-yl)oxy]-4-fluorophenyl}-3-fluoropyrrolidine-1-sulfonamide]
7 | 50 to 500 nM | – | – | – | B (35 < B < 70) | Cc1cc(N2CCC(CN3CCN(c4ccc(-n5cnc6ccc(Oc7c(F)ccc(NS(=O)(=O)N8CC[C@@H](F)C8)c7C#N)cc6c5=O)cc4)CC3)CC2)c(F)c2c1C(=O)N(C1CCC(=O)NC1=O)C2 (single isomer, unassigned) [Example 121, (3R)-N-(2-cyano-3-{[3-(4-{4-[(1-{2-[(3R*)-2,6-dioxopiperidin-3-yl]-4-fluoro-7-methyl-1-oxo-2,3-dihydro-1H-isoindol-5-yl}piperidin-4-yl)methyl]piperazin-1-yl}phenyl)-4-oxo-3,4-dihydroquinazolin-6-yl]oxy}-4-fluorophenyl)-3-fluoropyrrolidine-1-sulfonamide]
8 | 5 to 50 nM | ≤ 35% | – | – | – | Cc1cc(N2CCC(CN3CCN(c4ccc(-n5cnc6ccc(Oc7c(F)ccc(NS(=O)(=O)N8CC[C@@H](F)C8)c7C#N)cc6c5=O)cc4)CC3)CC2)c(F)c2c1C(=O)N(C1CCC(=O)NC1=O)C2 (single isomer, unassigned) [Example 120, (3R)-N-(2-cyano-3-{[3-(4-{4-[(1-{2-[(3R*)-2,6-dioxopiperidin-3-yl]-4-fluoro-7-methyl-1-oxo-2,3-dihydro-1H-isoindol-5-yl}piperidin-4-yl)methyl]piperazin-1-yl}phenyl)-4-oxo-3,4-dihydroquinazolin-6-yl]oxy}-4-fluorophenyl)-3-fluoropyrrolidine-1-sulfonamide]
9 | > 500 nM | – | – | – | – | N#Cc1c(NS(=O)(=O)N2CC[C@@H](F)C2)ccc(F)c1Oc1ccc2ncn(-c3ccc(N4CCC(CN5CC6(CC(c7ccc8c(c7)C(=O)N(C7CCC(=O)NC7=O)C8=O)C6)C5)CC4)cc3)c(=O)c2c1 (stereo partly drawn) [Example 119, (3R)-N-{2-cyano-3-[(3-{4-[4-({6-[2-(2,6-dioxopiperidin-3-yl)-1,3-dioxo-2,3-dihydro-1H-isoindol-5-yl]-2-azaspiro[3.3]heptan-2-yl}methyl)piperidin-1-yl]phenyl}-4-oxo-3,4-dihydroquinazolin-6-yl)oxy]-4-fluorophenyl}-3-fluoropyrrolidine-1-sulfonamide]
